Reference: PMC9413491, “A Novel and Cross-Species Active Mammalian INDY (NaCT) Inhibitor Ameliorates Hepatic Steatosis in Mice with Diet-Induced Obesity” (Metabolites, 2022)
Read-outs that look alike come from different tables or passages of the source.

Experiments:
human NaCT = target: T1, human NaCT (Homo sapiens, UniProt Q86YT5); assay: [14C] citrate uptake in HepG2 cells endogenously expressing human NaCT; type: cell-based; details: HepG2, human NaCT, citrate substrate
T1 construct: citrate uptake into HepG2 cells, which endogenously expressed NaCT; host or cells: HepG2
Source text: (§1) We determined activity on human NaCT by measuring citrate uptake into HepG2 cells, which endogenously expressed NaCT [37] and for mouse Nact, using HEK293 cells recombinantly expressing mouse Nact (HEK-Nact). We cloned the mouse Slc13a5 cDNA encoding Nact as described previously.
(§2) For radiometric [14C] citrate uptake assays, we used Cytostar-T plates (Perkin Elmer#RPNQ0166, Waltham, MA, USA). For each assay, we seeded 20,000 HepG2 cells per well on collagen coated 384-well Cytostar-T plates or 5000 HEK293 cells per well on ploy-D-lysine coated 384-well Cytostar-T plates. On the following day, we changed culture medium to assay buffer: 120 mM NaCl, 5.4 mM KCl, 0.8 mM MgSO4, 5 mM glucose, 1.8 mM CaCl2, 25 mM Hepes, 25 mM MES, pH 6.5 (human) and pH 7.5 (mouse). We preincubated cells with compounds at 37 °C for 20 min, after which we added [14C] citrate (3 µM for HEK cells and 10 µM for HepG2 cells) and incubated cells for 50 min at 37 °C. After cooling down for 15 min at 4 °C, we measured the counts using a Microbeta2 reader system (Perkin Elmer).

mouse Nact = target: T2, mouse Nact (Mus musculus, UniProt Q67BT3); assay: [14C] citrate uptake in HEK293 cells recombinantly expressing mouse Nact; type: cell-based; details: HEK293 mouse Nact
T2 construct: expressed in transfected cells; host or cells: HEK293 (DSMZ), stably transfected, G418 selection
T2 sequence (Q67BT3 1-572): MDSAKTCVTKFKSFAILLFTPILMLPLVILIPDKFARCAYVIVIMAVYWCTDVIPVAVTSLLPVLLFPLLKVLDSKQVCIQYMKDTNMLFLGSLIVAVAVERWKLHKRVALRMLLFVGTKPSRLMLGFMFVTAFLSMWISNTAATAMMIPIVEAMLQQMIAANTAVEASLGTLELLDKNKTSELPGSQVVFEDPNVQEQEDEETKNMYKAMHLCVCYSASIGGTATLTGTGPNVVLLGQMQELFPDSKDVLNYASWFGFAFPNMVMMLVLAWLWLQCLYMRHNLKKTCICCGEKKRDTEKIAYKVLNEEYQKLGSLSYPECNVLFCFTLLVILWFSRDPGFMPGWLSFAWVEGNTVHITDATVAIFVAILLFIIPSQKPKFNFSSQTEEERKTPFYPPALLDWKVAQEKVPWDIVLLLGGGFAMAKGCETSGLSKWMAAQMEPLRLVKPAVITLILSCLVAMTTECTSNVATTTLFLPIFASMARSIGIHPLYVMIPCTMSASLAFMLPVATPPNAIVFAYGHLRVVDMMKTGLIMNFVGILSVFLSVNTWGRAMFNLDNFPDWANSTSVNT
Source text: as §1, §2

[1] = test system: fatty acid synthesis in HepG2 cells; assay: Fatty acid synthesis assay ([14C] citrate incorporation) in HepG2 cells; type: cell-based, human
Procedure: We performed the fatty acid synthesis assay in HepG2 cells. We seeded cells into black clear-bottom 96-well plates (Corning 3340 cell plate) 75,000/well and incubated at 37 °C. After 16–24 h, we washed the plates once with 100 µL PBS (+CaCl2 +MgCl2) and added 50 µL assay medium ([…] containing 11 mM glucose, 10 mM HEPES, and 1 nM insulin) per well. Then, we applied test substances in assay medium (10 µL, 5% DMSO) and incubated for 20 min at 37 °C. Thereafter, we added 10 µL assay medium containing [14C] citrate (final concentration 50 µM) and PrestoBlue reagent (1× final concentration; Thermo Fisher Scientific, Waltham, MA, USA) and incubated for 180 min (37 °C, 5% CO2). We measured cell viability (ViewLux instrument, Perkin Elmer). We removed medium by vacuum aspiration and washed cells once with 100 µL PBS (+CaCl2 +MgCl2). We lysed cells with 50 µL lysis buffer (0.1 N NaOH, 0.1 % Triton X-100) and sealed plates with Tape Pads and vortexed. For the saponification reaction, we incubated plates for 16–24 h at 70 °C in a humidified environment. Then, we removed seals and added 200 µL 0.1 N HCl to neutralise the pH. We transferred 150 µL from each into corresponding wells of a 96-well Flash plate (Perkin Elmer) and sealed with TopSeal A (Perkin Elmer). We incubated plates for 4 h at 70 °C and for at least 3 h at room temperature in the dark. We measured [14C] radioactivity (microbeta2, Perkin Elmer). For control samples, we applied 50 mM unlabelled citrate or C75 (Sigma-Aldrich, St. Louis, MO, USA, C5490).

T1 sequence (Q86YT5 whole entry): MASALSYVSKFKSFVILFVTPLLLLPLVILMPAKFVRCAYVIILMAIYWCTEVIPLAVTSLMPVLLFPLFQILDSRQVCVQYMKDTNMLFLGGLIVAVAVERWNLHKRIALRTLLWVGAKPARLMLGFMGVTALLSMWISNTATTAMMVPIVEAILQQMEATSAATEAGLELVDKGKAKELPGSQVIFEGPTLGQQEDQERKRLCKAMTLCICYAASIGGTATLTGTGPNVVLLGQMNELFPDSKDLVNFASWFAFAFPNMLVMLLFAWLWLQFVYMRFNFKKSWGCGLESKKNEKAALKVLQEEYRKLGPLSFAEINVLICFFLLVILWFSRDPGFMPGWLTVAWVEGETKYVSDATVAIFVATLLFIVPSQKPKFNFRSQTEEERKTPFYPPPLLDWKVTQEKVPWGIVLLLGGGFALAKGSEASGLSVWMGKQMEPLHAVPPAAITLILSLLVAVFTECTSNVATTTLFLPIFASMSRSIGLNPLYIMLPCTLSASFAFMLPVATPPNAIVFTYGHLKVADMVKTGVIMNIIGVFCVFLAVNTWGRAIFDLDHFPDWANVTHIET

O=C(NCc1ccc(F)cc1)C1CCN(S(=O)(=O)c2cc(Cl)cc(Cl)c2)CC1 [BI01383298, reference compound]
IC50 (human NaCT): 78 nM | Effect on citrate uptake for mouse Nact (mouse Nact): no effects | IC50 (mouse Nact; read-out: IC50 HEK293 citrate uptake (mouse)): > 50000 nM | IC50 ([1]; HepG2, read-out: IC50 HepG2 fatty acid synthesis): 30 nM

CC(C)(C)c1ccc(CC[C@@](O)(CC(=O)O)C(=O)O)cc1 [PF-06649298, reference compound]
IC50 ([1]; HepG2, [14C] citrate incorporation, read-out: IC50 fatty acid synthesis, HepG2): 39000 nM
